The values below come from patent publication US12280047B2, “Treatment of aneurysms” (Georgia State Research Foundation, Inc., priority 2017, dated 2025).

What all share (format): in vivo
In assay [1] the test system is ApoE−/− mice. Briefly: OMBA, NBA and 1MT treating AngII-induced abdominal aortic aneurysm (Example 15). To be noted: ApoE−/− mice; AngII 1,000 ng/kg/min four weeks, then drug in drinking water 6 weeks; mice with AAA/group size. As to the method:
To test the effect of other Kynurenine pathway inhibitors on treating AngII-induced abdominal aortic aneurysm, male ApoE^−/− mice at age 8 weeks were infused with AngII (1,000 ng/kg/min) or saline (0.9% sodium chloride) by Alzet osmotic pumps for four weeks. Four weeks later, Ang-II treated mice were divided into […] groups of 18 and administered o-methoxybenzo ylalanine (OMB), (m-nitrobenzoyl)alanine (NBA), 1-methyltryptophan (1MT) or vehicle control (water) by drinking water for 6 weeks.
To quantify AAA incidence and size, the maximum width of abdominal aorta was measured with Image Pro Plus software (Media Cybernetics). Aneurysm incidence was quantified based on a definition of aneurysm as an external width of the suprarenal aorta that was increased by 50% or greater compared with aortas from saline-infused mice. The average diameter of the normal suprarenal aorta in control mice is 0.8 mm. Therefore, a threshold of 1.22 mm as evidence of aneurysm formation was set. […] Incidence of AAA among the various groups of mice is outlined in FIG. 31A and Table 5 below.

Assay [2] concerns ApoE−/− mice. The assay can be described thus: Acipimox preventing AngII-induced abdominal aortic aneurysm (Example 12). As to the method:
To evaluate whether acipimox has inhibitory effects on AngII-induced AAA formation, male ApoE^−/− mice at age eight weeks were administrated either 1) acipimox (0.1% wt) or 2) vehicle control (water) by drinking water. After four weeks, Alzet osmotic mini pumps (Model 2004) were implanted into each group. Pumps were filled either with 1) saline vehicle or 2) solutions of Ang II (Sigma Chemical Co., St. Louis, Missouri, USA) that delivered (subcutaneously) 1.44 mg/kg/day of Ang II for 28 days. Pumps were placed into the subcutaneous space of isoflurane anesthetized mice through a small incision in the back of the neck that was closed with surgical glue. All incision sites healed rapidly without the need for any medication.
To quantify AAA incidence and size, the maximum width of abdominal aorta was measured with Image Pro Plus software (Media Cybernetics). Aneurysm incidence was quantified based on a definition of aneurysm as an external width of the suprarenal aorta that was increased by 50% or greater compared with aortas from saline-infused mice. The average diameter of the normal suprarenal aorta in control mice is 0.8 mm. […]
Abdominal aorta dimeter was measured by ultrasound as described above.
The effect of acipimox on the speed of propagation (i.e. PWV), which is parameter for arterial stiffness, was analyzed.

For assay [3], the system named is ApoE−/− and ApoE−/−/IDO−/− mice. Briefly: AngII-induced AAA formation in ApoE−/− and ApoE−/−/IDO−/− mice. To be noted: AngII 1000 ng/min/kg, 4 weeks. The source says: IDO^−/− and ApoE^−/− mice were obtained from Jackson laboratory (Bar Harbor, Maine) in a C57BL/6 background. IDO^−/− mice were crossed with ApoE^−/− mice to generate ApoE^−/−/IDO^−/− mice. Mice were housed in temperature-controlled cages under a 12-hour light/dark cycle and given free access to water and normal chow. All procedures involving animals were approved by the Institutional Animal Care and Use Committee at the University of Oklahoma Health Sciences Center. […] Circ Res. (2014) 114:480-92.
To quantify AAA incidence and size, the maximum width of abdominal aorta was measure with Image Pro Plus software (Media Cybernetics). We quantified aneurysm incidence based on a definition of aneurysm as an external width of the suprarenal aorta that was increased by 50% or greater compared with aortas from saline-infused mice, as described previously (Sparks A R, et al., Imaging of abdominal aortic aneurysms. Am Fam Physician. (2002) 65:1565-70). The average diameter of the normal suprarenal aorta in control mice is 0.8 mm. […]
AngII-induced mouse AAA formation in the atherosclerotic-susceptible strain (ApoE^−/−) has become the most widely used model. […] To unravel the role of the Trp-Kyn pathway in AAA formation ApoE^−/−/IDO^−/− (double-knockout) mice were generated and the outcome of a 4-week AngII infusion (1000 ng/min/kg) in ApoE^−/− and ApoE^−/−/IDO^−/− mice was determined. […]

For assay [4], the system named is ApoE−/− mice. The assay can be described thus: Acipimox preventing AngII-induced AAA in aged mice (Example 16). To be noted: AngII 1,000 ng/kg/min four weeks. As to the method: To compare the effect of acipimox on treating AngII-induced abdominal aortic aneurysm in young (3 months old) or old (24 months old) mice, male ApoE^−/− mice in the aged mice group were treated with acipimox (0.1% wt) or vehicle control (water) by drinking water for 6 weeks. Four weeks later, mice in both age groups were infused with AngII (1,000 ng/kg/min) or saline (0.9% sodium chloride) by Alzet osmotic pumps for four weeks. AAA incidence and maximal abdominal aorta diameter were examined to evaluate the therapeutic effect of acipimox on AngII-induced AAA in old mice.
To quantify AAA incidence and size, the maximum width of abdominal aorta was measured with Image Pro Plus software (Media Cybernetics). Aneurysm incidence was quantified based on a definition of aneurysm as an external width of the suprarenal aorta that was increased by 50% or greater compared with aortas from saline-infused mice. The average diameter of the normal suprarenal aorta in control mice is 0.705 mm. Therefore, a threshold of 1.06 mm as evidence of aneurysm formation was set. […] After 4-weeks of AngII-infusion, mice where divided into two groups vehicle treated (n=10) or acipimox treated (n=15). Before treatment, the AAA incidence was 20% and 70% in young and old mice, respectively. After six weeks of treatment acipimox, AAA incidence decreased to 25% in the old mice group. […]

Regarding “Angiotensin II (DRVYIHPF; Angiotensin-2; UniProt P01019 25-32, looked up) [AngII, Angiotensin II (Sigma, A9525) infused to induce AAA in mice]”, in the assay on ApoE−/− mice [1], the “Incidence of AAA” value is given as 15/18. In the assay with ApoE−/− mice [2] (Ang II 1.44 mg/kg/day 28 days, with acipimox 0.1% wt or vehicle), this substance came in with a mortality rate of 28.6%. Besides, the “mice that developed AAA (AAA incidence)” value in the assay on ApoE−/− mice [2] (Ang II 1.44 mg/kg/day s.c. 28 days, acipimox 0.1% wt or vehicle in drinking water, started four weeks before) was “Eighty”. For the same substance, the results for the “incidence of AngII-induced AAA” value in assay [3] (ApoE−/− mice) and in assay [3] (ApoE−/−/IDO−/− mice) were 73% and 15%, respectively. Moreover, the AAA incidence in the assay on ApoE−/− mice [4] (old (24 months old) ApoE−/− mice) was found to be 70%; in the assay on ApoE−/− mice [4] (young (3 months old) ApoE−/− mice), 20%.
